For series [1], the system named is Plasmodium falciparum strain 3D7. Nature of the series: Plasmodium falciparum screening, SYBR green growth inhibition. Type of series: cell-based. To be noted: 3D7, supplementary csv, read-out: Pf (3D7) EC50. On the procedure: (§1) Plasmodium falciparum screening
(§2) Assays against P. falciparum were conducted as previously described.1 Cultures of the widely-used malaria reference strain of chloroquine-sensitive Plasmodium falciparum strain 3D7 were maintained in a 5% suspension of human red blood cells (obtained from East of Scotland Blood Transfusion Service, Ninewells Hospital, Dundee) cultured in RPMI 1640 medium (pH 7.3) supplemented with 0.5% Albumax II (Gibco Life Technologies, San Diego, CA), 12 mM sodium bicarbonate, 0.2 mM hypoxanthine and 20 mg/L gentamicin at 37°C, in a humidified atmosphere of 1% O 2, 3% CO2 with a balance of nitrogen. Growth inhibition was quantified using a fluorescence assay utilising the binding of SYBR green to double stranded DNA, which emits a fluorescent signal at 528 nm after excitation at 485nm.2 Mefloquine (potency range 30-60 nM) was used as a drug control to monitor the quality of the assay (Z’ = 0.6 to 0.8, Signal to background >3, where Z’ is a measure of the discrimination between the positive and negative controls on a screen plate). A 96-well [3H]-Hypoxanthine incorporation assay was also developed as a secondary assay in order to validate compounds from the initial screen in an orthogonal platform.3 Compound bioactivity from both assays was expressed as […]
(§3) P. falciparum (panel of resistant strains) in vitro assay. (Swiss TPH)
(§4) All Plasmodium strains were cultured according to Trager and Jensen and are described at www.beiresources.org (resistant strains: K1, W2, 7G8, TM90C2A, D6 and V1/S, sensitive strain:
(§5) NF54). EC50 values were determined in vitro by measuring incorporation of the nucleic acid precursor […]
(§6) Mammalian Cell Growth Inhibition assay
(§7) A counter-screen against normal diploid human fibroblasts (MRC-5 cell line) was carried out to exclude non-selective, and toxic compounds. The assay was essentially carried out as described previously.4 Cells were plated and incubated overnight to allow them to adhere as monolayers. A working stock of each test compound was transferred to an intermediate 384-well plate and pre-diluted with minimum essential media (MEM). The pre-diluted stocks were then transferred onto the cell monolayers, and the plates were incubated for 68 h. Resazurin, to a final concentration of 50 μM, was added to each well, after which plates were incubated for a further 3 h and measured for fluorescence (λex=528 nm, λem=590 nm)
(§8) In vitro Cell Assay Data Analysis.
(§9) All data was processed using IDBS ActivityBase® raw data was converted into per cent inhibition through linear regression by setting the high inhibition control as 100% and the no inhibition control as 0%. Quality control criteria for passing plates were as follows: Z’> 0.5, S:B> 3, %CV(no inhibition < 15 . The formula used to calculate Z’ is 1 3× (St D e v _ hi gh + St D e v _ low) . […]
(§10) All EC50 Curve fitting was undertaken using XLFit version 4.2 using Model 205 with the following 4 parametric equation: y = A + B A A + ($-&) ,where A=% inhibition at bottom, B=% […]
(§11) inhibition at top, C= EC50, D= slope, x= inhibitor concentration and y= % inhibition. […]
(§12) reach 100% of inhibition, B was fixed to 100 only when at least 50% of inhibition was reached.
(§13) Plasmodium falciparum late stage (IV-V) gametocyte high content imaging assay Plasmodium falciparum NF54-pfs16-LUC-GFP stage IV-V Gametocytes were produced as described previously.5 Compounds were solubilized in DMSO and serially diluted in three concentrations per log standard curves in DM SO. One µl of compound was subsequently diluted in 25µl of water (4% DMSO) and 5µl transferred into the base of 384 well PerkinElmer CellCarrier plates. Forty-five µl of stage IV-V gametocytes (10%P in 0.1%H) were added to the imaging plates which were in turn sealed with a gas permeable membrane and incubated at 37°C, 5% CO 2, 5% O2, 90% N2 and 60% humidity […]
(§14) Post incubation, 5µl of MitoTracker® Red CM -H2Xros (MTR) solution (0.66ug/ml) was added to all wells and the plates incubated for a further 16hours. […]

Series [2] in a line: Mammalian cell growth inhibition counter-screen (resazurin). Type of series: cell-based, human. To be noted: human, MRC-5 cells (normal diploid human fibroblasts). As to the method: as §1, §2, §3, §4, §5, §6, §7, §8, §9, §10, §11, §12, §13, §14
Series [3] concerns Pf (3D7). In words: Ligand efficiency metrics (LE, LLE, LELP), selectivity and fold changes. To be noted: Pf (3D7), relative to the comparator compound of the sentence. Also noted: species or system Plasmodium falciparum.

pEC50: −log10 of the molar value. Some results are limits rather than exact numbers.

Consider `O=C(NCCN1CCCC1)c1cc(NCCC2CCOCC2)nc2ccc(F)cc12` [Compound 29, 6-Fluoro-N-(2-(pyrrolidin-1-yl)ethyl)-2-((2-(tetrahydro-2H-pyran-4-yl)ethyl)amino)quinoline-4-carboxamide], for which the negative-log EC50 (pEC50) in series [1] is 8.77. The EC50 at 68 h in series [2] is more than 50 µM.

Consider `Cc1cc(Nc2cc(C(=O)NCCN3CCCC3)c3cc(F)ccc3n2)on1` [Compound 20], for which the EC50 at 68 h in series [2] is more than 50 µM. For `Cc1ccc(-c2cc(C(=O)Nc3cccnc3)c3ccccc3n2)cc1` [Compound 12, N-(Pyridine-3-yl)-2-(p-tolyl)quinoline-4-carboxamide], the EC50 at 68 h in series [2] is more than 50 µM. The molecule also registered a drop in potency in series [3] of 8 fold.

These data come from article PMC5108032, “Discovery of a Quinoline-4-carboxamide Derivative with a Novel Mechanism of Action, Multistage Antimalarial Activity, and Potent in Vivo Efficacy” (Journal of Medicinal Chemistry, 2016).
